Data taken from ChEMBL document CHEMBL1157695, “Identification of a novel ligand binding motif in the transthyretin channel” (Bioorg Med Chem, 2010).
Activity calls are given as the source filed them. No cut-off for these calls is given here.

What was measured:
[1] = Binding affinity to human recombinant TTR T119M mutant denominated hormone binding site expressed in Escherichia coli assessed as dissociation constant for first ligand binding event by isothermal direct titrimetric assay
[2] = organism: Homo sapiens; assay: Binding affinity to human recombinant TTR T119M mutant denominated hormone binding site expressed in Escherichia coli at 10 uM by fluorescence anisotropy
[3] = Binding affinity to human recombinant TTR T119M mutant denominated hormone binding site expressed in Escherichia coli assessed as dissociation constant for second ligand binding event by isothermal direct titrimetric assay
[4] = target: Transthyretin (Homo sapiens) (UniProt P02766); assay: Binding affinity to wild type human TTR denominated hormone binding site expressed in Escherichia coli at 10 uM by fluorescence anisotropy
[5] = tested on: Transthyretin (Homo sapiens), P02766 [V50M]; assay: Binding affinity to human recombinant TTR V30M mutant denominated hormone binding site expressed in Escherichia coli at 10 uM by fluorescence anisotropy
[6] = target: Transthyretin (Homo sapiens) (UniProt P02766); assay: Inhibition of wild type human TTR aggregation expressed in Escherichia coli assessed as fibril formation at 20 uM after 72 hrs relative by spectrofluorimetry; set-up: scale not given: the % may be the effect or the level left
[7] = Binding affinity to human recombinant TTR T119M mutant denominated hormone binding site expressed in Escherichia coli by isothermal direct titrimetric assay
[8] = target: Transthyretin (Homo sapiens, UniProt P02766, V50M); assay: Binding affinity to human recombinant TTR V30M mutant denominated hormone binding site expressed in Escherichia coli by FRET analysis
[9] = organism: Homo sapiens; assay: Binding affinity to human recombinant TTR T119M mutant denominated hormone binding site expressed in Escherichia coli at 100 nM by fluorescence anisotropy
[10] = tested on: Transthyretin (Homo sapiens), P02766 [V50M]; assay: Binding affinity to human recombinant TTR V30M mutant denominated hormone binding site expressed in Escherichia coli at 100 nM by fluorescence anisotropy
[11] = target: Transthyretin (Homo sapiens) (UniProt P02766); assay: Binding affinity to wild type human TTR denominated hormone binding site expressed in Escherichia coli at 100 nM by fluorescence anisotropy
[12] = Binding affinity to human recombinant TTR T119M mutant denominated hormone binding site expressed in Escherichia coli by FRET analysis

Activity [2] | Activity [4] | Activity [5] | Activity [6] [%] | Kd [8] [µM] | Activity [9] | Activity [10] | Activity [11] | Compound | Kd [1] [µM] | Kd [3] [µM] | Kd [7] [µM] | Kd [12] [µM]
Active | Active | Active | 44 | – | – | – | – | O=S(=O)(O)c1cccc2cccc(Nc3ccccc3)c12 | 3.2 | 6.7 | 4.5 | –
– | – | – | 33 | – | – | – | – | O=C(O)Cc1ccccc1Nc1c(Cl)cccc1Cl | – | – | – | –
– | – | – | 100 | 86 | Active | Active | Active | Nc1cccc2c(S(=O)(=O)O)cccc12 | – | – | – | 93
